{"source": "ChEMBL document CHEMBL1800038", "about": "“Kabiramides J and K, trisoxazole macrolides from the sponge Pachastrissa nux” (J Nat Prod, 2011)", "key": {"Plasmodium falciparum [1]": {"tested_on": "Plasmodium falciparum", "experiment": "Antimalarial activity against multidrug-resistance Plasmodium falciparum K1 assessed as growth inhibition by microdilution radioisotope technique", "format": "functional, organism-based"}, "MCF7": {"tested_on": "MCF7", "experiment": "Cytotoxicity against human MCF7 cells by SRB assay", "format": "functional, cell-based"}, "[2]": {"experiment": "Cytotoxicity against human Fibroblasts by SRB assay", "format": "cell-based", "conditions": "Fibroblast"}, "Plasmodium falciparum [3]": {"tested_on": "Plasmodium falciparum", "experiment": "Antimalarial activity against multidrug-resistance Plasmodium falciparum K1 assessed as growth inhibition at […] by microdilution radioisotope technique", "format": "functional, organism-based"}}, "note": "Activity calls are given as the source filed them. The calls are words filed in the database; no cut-off is given here.", "data": [{"smiles": "C[C@H]1[C@@H](O)O[C@@H]2O[C@@]3(C)CC[C@H]4[C@H](C)CC[C@@H]1[C@@]24OO3", "note": "[ARTENIMOL]", "values": [{"measurement": "IC50", "setting": "Plasmodium falciparum [1]", "result": 3.8, "unit": "nM"}]}, {"smiles": "CC[C@@]1(O)C(=O)OCc2c1cc1n(c2=O)Cc2cc3ccccc3nc2-1", "note": "[CAMPTOTHECIN]", "values": [{"measurement": "IC50", "setting": "MCF7", "result": 1.6, "unit": "nM"}, {"measurement": "IC50", "setting": "[2]", "result": 459, "unit": "nM"}]}, {"smiles": "CO[C@H]([C@H](C)/C=C/N(C)C=O)[C@@H](C)C(=O)CC[C@H](C)[C@H](C[C@@H]1OC(=O)C[C@@H](OC(N)=O)C[C@H](C)C[C@H](O)[C@H](C)[C@@H](OC)c2coc(n2)-c2coc(n2)-c2coc(n2)/C=C/C[C@H](O)[C@H]1C)OC", "note": "[KABIRAMIDE B]", "values": [{"measurement": "IC50", "setting": "MCF7", "result": 450, "unit": "nM"}, {"measurement": "IC50", "setting": "Plasmodium falciparum [1]", "result": 1670, "unit": "nM"}, {"measurement": "IC50", "setting": "[2]", "result": 950, "unit": "nM"}]}, {"smiles": "CO[C@H]([C@H](C)/C=C/N(C)C=O)[C@@H](C)C(=O)CC[C@H](C)[C@H](C[C@@H]1OC(=O)C[C@@H](OC(N)=O)C[C@H](C)C[C@H](O)[C@H](C)[C@@H](OC)c2coc(n2)-c2coc(n2)-c2coc(n2)/C=C/C[C@H](OC)[C@H]1C)OC", "note": "[KABIRAMIDE C]", "values": [{"measurement": "IC50", "setting": "MCF7", "result": 470, "unit": "nM"}, {"measurement": "IC50", "setting": "Plasmodium falciparum [1]", "result": 4790, "unit": "nM"}, {"measurement": "IC50", "setting": "[2]", "result": 7590, "unit": "nM"}]}, {"smiles": "CO[C@H]([C@H](C)/C=C/N(C)C=O)[C@@H](C)C(=O)CC[C@H](C)[C@H](C[C@@H]1OC(=O)C[C@@H](O)C[C@H](C)C[C@H](O)[C@H](C)[C@@H](OC)c2coc(n2)-c2coc(n2)-c2coc(n2)/C=C/C[C@H](OC)[C@H]1C)OC", "note": "[KABIRAMIDE D]", "values": [{"measurement": "IC50", "setting": "MCF7", "result": 20, "unit": "nM"}, {"measurement": "IC50", "setting": "Plasmodium falciparum [1]", "result": 1870, "unit": "nM"}, {"measurement": "IC50", "setting": "[2]", "result": 500, "unit": "nM"}]}, {"smiles": "CO[C@H]1C/C=C/c2nc(co2)-c2nc(co2)-c2nc(co2)[C@H](OC)[C@@H](C)[C@@H](O)C[C@@H](C)C[C@H](OC(N)=O)CC(=O)O[C@@H](C[C@H](OC)[C@@H](C)CCC(=O)/C(C)=C/[C@H](C)/C=C/N(C)C=O)[C@@H]1C", "note": "[KABIRAMIDE G]", "values": [{"measurement": "IC50", "setting": "MCF7", "result": 20, "unit": "nM"}, {"measurement": "inhibition", "setting": "Plasmodium falciparum [3]", "result": "inactive"}, {"measurement": "IC50", "setting": "[2]", "result": 2370, "unit": "nM"}]}, {"smiles": "CO[C@@H](C[C@@H]1OC(=O)C[C@@H](OC(N)=O)C[C@H](C)C[C@H](O)[C@H](C)[C@@H](OC)c2coc(n2)-c2coc(n2)-c2coc(n2)/C=C/C[C@H](O)[C@H]1C)[C@@H](C)CCC(=O)/C(C)=C/[C@H](C)/C=C/N(C)C=O", "note": "[KABIRAMIDE J]", "values": [{"measurement": "IC50", "setting": "MCF7", "result": 20, "unit": "nM"}, {"measurement": "IC50", "setting": "Plasmodium falciparum [1]", "result": 310, "unit": "nM"}]}, {"smiles": "CO[C@H]1C/C=C/c2nc(co2)-c2nc(co2)-c2nc(co2)[C@H](OC)[C@@H](C)[C@@H](O)C[C@@H](C)C[C@H](O)CC(=O)O[C@@H](C[C@H](OC)[C@@H](C)CCC(=O)/C(C)=C/[C@H](C)/C=C/N(C)C=O)[C@@H]1C", "note": "[KABIRAMIDE K]", "values": [{"measurement": "IC50", "setting": "MCF7", "result": 70, "unit": "nM"}, {"measurement": "IC50", "setting": "Plasmodium falciparum [1]", "result": 390, "unit": "nM"}]}]}
